Values quoted from earlier work, collected in article PMC6259197, “Alkaloids from Stems of Esenbeckia leiocarpa Engl. (Rutaceae) as Potential Treatment for Alzheimer Disease” (Molecules, 2010).

How the values were obtained:
[1] = system: Leucoagaricus gongylophorus; parameters: method as in doi:10.1590/S0103-50532002000100010; conditions: alkaloids from Raulinoa echinata; symbiotic fungus of leaf-cutting ants
brine shrimp = conditions: alkaloids isolated from leaves of E. belizencis
Pectinophora gossypiella = system: Pectinophora gossypiella; parameters: method as in PMID 1965201; conditions: activity of extract attributed to leiokinine A and B

| Compound | antifungal activity against Leucoagaricus gongylophorus [1] | brine shrimp toxicity LC50 (brine shrimp) | mutagenic activity | antifeedant activity against pink bollworm (Pectinophora gossypiella) |
| --- | --- | --- | --- | --- |
| COc1c2ccoc2nc2c(OC)c3c(cc12)OCO3 [flindersiamine] | antifungal activity | > 1,000 ppm |  |  |
| COc1cc2nc3occc3c(OC)c2cc1OC [kokusaginine] | antifungal activity | 367 ppm | weak mutagenic activity |  |
| CCCc1c(OC)c(=O)c2ccccc2n1C [leiokinine A] |  |  |  | weak antifeedant activity |
| COc1c2cc3c(cc2nc2occc12)OCO3 [maculine] | antifungal activity |  |  |  |
| COc1ccc2c(OC)c3ccoc3nc2c1OC [skimmianine] | antifungal activity |  | weak mutagenic activity |  |
| leiokinine B |  |  |  | weak antifeedant activity |
